Measurements taken from patent publication US20040249122A1, “Cationic, amphipathic beta-sheet peptides and uses thereof” (priority 2003, published 2004).
Where a SMILES comes first, the peptide text is derived from it.

Key:
[1] = system: Escherichia coli (ATCC 25922); type: cell-based; details: ATCC 25922
Method: (§1) Antimicrobial and Hemolytic Assays. Antimicrobial susceptibility testing against Staphylococcus aureus (ATCC 29213), Escherichia coli (ATCC 25922), and Pseudomonas aeruginosa (ATCC 27853) was performed using a modification of the National Committee for Clinical Laboratory Standards microdilution broth assay (22). Mueller-Hinton broth (BBL) was used for diluting the peptide stock solution and for diluting the bacterial inoculum. The inoculum was prepared from mid-logarithmic phase cultures. […] The final concentration of peptide solution ranged-from 0.25 to 256 μg/mL in two-fold dilutions. The final concentration of bacteria in the wells was 5×10^5 CFU/mL. Peptides were tested in duplicate. In addition to the test peptide, three standard peptides and a non-treated growth control were included to validate the assay. The microtiter plates were incubated overnight at 37° C. and the absorbance was measured at 600 nm. […] After incubation at 37° C. for 30 min, the suspension was centrifuged at 10,000×g for 10 min and the absorbance at 400 nm was measured.

[2] = system: Pseudomonas aeruginosa (ATCC 27853); type: cell-based; details: ATCC 27853
Method: as §1

[3] = system: Staphylococcus aureus (ATCC 29213); type: cell-based; details: ATCC 29213
Method: as §1

[4] = system: Candida albicans (ATCC 14053); details: ATCC 14053
Method: Antimicrobial and Hemolytic Assays. Antimicrobial susceptibility testing against Staphylococcus aureus (ATCC 29213), Escherichia coli (ATCC 25922), and Pseudomonas aeruginosa (ATCC 27853) was performed using a modification of the National Committee for Clinical Laboratory Standards microdilution broth assay (22). Mueller-Hinton broth (BBL) was used for diluting the peptide stock solution and for diluting the bacterial inoculum. The inoculum was prepared from mid-logarithmic phase cultures. Microtiter plate wells received aliquots-of 100 μL each of the inoculum and peptide dilution. The final concentration of peptide solution ranged-from 0.25 to 256 μg/mL in two-fold dilutions. The final concentration of bacteria in the wells was 5×10^5 CFU/mL. Peptides were tested in duplicate. In addition to the test peptide, three standard peptides and a non-treated growth control were included to validate the assay. The microtiter plates were incubated overnight at 37° C. and the absorbance was measured at 600 nm. […] After incubation at 37° C. for 30 min, the suspension was centrifuged at 10,000×g for 10 min and the absorbance at 400 nm was measured. Complete hemolysis was determined by adding 0.2% Triton X-100 in place of the peptide.
Antimicrobial susceptibility testing against Escherichia coli (ATCC 25922), Staphylococcus aureus (ATCC 29213), Pseudomonas aeruginosa (ATCC 27853), and Candida albicans (ATCC 14053) is performed using a modification of the National Committee for Clinical Laboratory Standards microdilution broth assay. Mueller-Hinton broth (BBL) is used for diluting the peptide stock solution and for diluting the bacterial inoculum. The inoculum is prepared from midlogarithmic phase cultures at an approximate concentration of 10^6 CFU/mL. Microtiter plate wells receive aliquots of 0.1 mL each of the inoculum and peptide dilution. The final concentration of the peptide solution ranges from 0.25 to 256 μg/mL in 2-fold dilutions. The microtiter plates are incubated overnight at 37° C.

[5] = system: human erythrocytes; assay: Hemolysis of human erythrocytes; type: cell-based; details: red cells of human, 500
Method: as §1

Row | Compound | Minimum Inhibitory Concentration, E. coli [1] [µg/mL] | Minimum Inhibitory Concentration, P. aeruginosa [2] [µg/mL] | Minimum Inhibitory Concentration, S. aureus [3] [µg/mL] | Minimum Inhibitory Concentration, C. albicans [4] [µg/mL] | % Hemolysis (500 μg/mL) [5] [%]
1 | CC(C)C[C@H](NC(=O)CNC(=O)[C@H](C)NC(=O)[C@H](CC(C)C)NC(=O)[C@H](CCCCN)NC(=O)[C@H](CCCCN)NC(=O)[C@H](C)NC(=O)[C@H](CC(C)C)NC(=O)CNC(=O)[C@H](C)NC(=O)[C@H](CC(C)C)NC(=O)[C@H](CCCCN)NC(=O)[C@H](CCCCN)NC(=O)[C@H](C)NC(=O)[C@H](CC(C)C)NC(=O)CNC(=O)[C@H](C)NC(=O)[C@H](CC(C)C)NC(=O)[C@@H](N)CCCCN)C(=O)N[C@@H](C)C(=O)N[C@@H](CCCCN)C(N)=O [(KLAGLAK)3-NH2, KLAGLAKKLAGLAKKLAGLAK -NH2] (H-KLAGLAKKLAGLAKKLAGLAK-NH2) | 8 | 128 | 16 | 64 | 9
2 | CC[C@H](C)[C@H](NC(=O)CN)C(=O)NCC(=O)N[C@@H](CCCCN)C(=O)N[C@@H](Cc1ccccc1)C(=O)N[C@@H](CC(C)C)C(=O)N[C@@H](CCCCN)C(=O)N[C@@H](CCCCN)C(=O)N[C@@H](C)C(=O)N[C@@H](CCCCN)C(=O)N[C@@H](CCCCN)C(=O)N[C@@H](Cc1ccccc1)C(=O)NCC(=O)N[C@@H](CCCCN)C(=O)N[C@@H](C)C(=O)N[C@@H](Cc1ccccc1)C(=O)N[C@H](C(=O)N[C@@H](CCCCN)C(=O)N[C@H](C(=O)N[C@@H](CC(C)C)C(=O)N[C@@H](CCCCN)C(=O)N[C@@H](CCCCN)C(N)=O)[C@@H](C)CC)C(C)C [MSI-78, reference compound] (H-GIGKFLKKAKKFGKAFVKILKK-NH2) | 8 | 4 | 8 | 64 | 9
3 | CC[C@H](C)[C@H](NC(=O)CN)C(=O)NCC(=O)N[C@@H](CCCCN)C(=O)N[C@@H](Cc1ccccc1)C(=O)N[C@@H](CC(C)C)C(=O)N[C@@H](Cc1c[nH]cn1)C(=O)N[C@@H](CO)C(=O)N[C@@H](C)C(=O)N[C@@H](CCCCN)C(=O)N[C@@H](CCCCN)C(=O)N[C@@H](Cc1ccccc1)C(=O)NCC(=O)N[C@@H](CCCCN)C(=O)N[C@@H](C)C(=O)N[C@@H](Cc1ccccc1)C(=O)N[C@H](C(=O)NCC(=O)N[C@@H](C)C(=O)N[C@H](C(=O)N[C@@H](CCSC)C(=O)N[C@@H](CC(N)=O)C(=O)N[C@@H](CO)C(N)=O)[C@@H](C)CC)C(C)C [A19-Magainin 2-NH2, reference compound] (H-GIGKFLHSAKKFGKAFVGAIMNS-NH2) | 8 | 16 | 64 | 128 | 29
4 | CC[C@H](C)[C@H](NC(=O)CN)C(=O)NCC(=O)N[C@@H](CCCCN)C(=O)N[C@@H](Cc1ccccc1)C(=O)N[C@@H](CC(C)C)C(=O)N[C@@H](Cc1c[nH]cn1)C(=O)N[C@@H](CO)C(=O)N[C@@H](C)C(=O)N[C@@H](CCCCN)C(=O)N[C@@H](CCCCN)C(=O)N[C@@H](Cc1ccccc1)C(=O)NCC(=O)N[C@@H](CCCCN)C(=O)N[C@@H](C)C(=O)N[C@@H](Cc1ccccc1)C(=O)N[C@H](C(=O)NCC(=O)N[C@@H](CCC(=O)O)C(=O)N[C@H](C(=O)N[C@@H](CCSC)C(=O)N[C@@H](CC(N)=O)C(=O)N[C@@H](CO)C(N)=O)[C@@H](C)CC)C(C)C [Magainin 2-NH2, GIGKFLHSAKKFGKAFVGEIMNS -NH2, reference compound] (H-GIGKFLHSAKKFGKAFVGEIMNS-NH2) | 64 | 256 | 256 | >256 | 2
